Assay [1] deals with Magnaporthe grisea (Pyricularia oryzae). The assay can be described thus: whole plant or invertebrate. The format is in vivo. The settings on record: foliar, read-out: control of Magnaporthe grisea (percent disease control compared to untreated).
The test system of assay [2] is Mycosphaerella graminicola (Septoria tritici). The assay can be described thus: Mycosphaerella graminicola (Septoria tritici) / liquid culture (Septoria blotch). The settings on record: Zymoseptoria tritici, PDB potato dextrose broth, 24° C., 4-5 days after application, read-out: control of Mycosphaerella graminicola (inhibition of growth, photometric). The format is cell-based. Here is the method:
Example B15: Mycosphaerella graminicola (Septoria tritici)/Liquid Culture (Septoria Blotch) Conidia of the fungus from cryogenic storage are directly mixed into nutrient broth (PDB potato dextrose broth). After placing a (DMSO) solution of test compound into a microtiter plate (96-well format), the nutrient broth containing the fungal spores is added. The test plates are incubated at 24° C. and the inhibition of growth is determined photometrically 4-5 days after application. […] […]-191.

Assay [3] has as its system Blumeria graminis f. sp. tritici (Erysiphe graminis f. sp. tritici). The experiment in a line: Blumeria graminis f. sp. tritici / wheat / leaf disc preventative (powdery mildew on wheat). The following applies: foliar, wheat leaf segments cv. Kanzler, inoculated 1 day after application, assessed 6-8 days after application, read-out: control of Blumeria graminis f. sp. tritici (percent disease control compared to untreated). The format is in vivo. From the text:
Example B4: Blumeria graminis f. sp. tritici (Erysiphe graminis f. sp. tritici)/Wheat/Leaf Disc Preventative (Powdery Mildew on Wheat) Wheat leaf segments cv. Kanzler are placed on agar in a multiwell plate (24-well format) and sprayed with the formulated test compound diluted in water. The leaf disks are inoculated by shaking powdery mildew infected plants above the test plates 1 day after application. […] […]-192.

The test system of assay [4] is Glomerella lagenarium (Colletotrichum lagenarium). The experiment in a line: Glomerella lagenarium (Colletotrichum lagenarium) / liquid culture (anthracnose). The settings on record: Colletotrichum orbiculare, PDB potato dextrose broth, 24° C., 3-4 days after application, read-out: control of Glomerella lagenarium (inhibition of growth, photometric). The format is cell-based. As for the experimental part: Example B3: Glomerella lagenarium (Colletotrichum lagenarium)/Liquid Culture (Anthracnose) Conidia of the fungus from cryogenic storage are directly mixed into nutrient broth (PDB potato dextrose broth). After placing a (DMSO) solution of test compound into a microtiter plate (96-well format), the nutrient broth containing the fungal spores is added. The test plates are incubated at 24° C. and the inhibition of growth is measured photometrically 3-4 days after application. […] […]-191.

Assay [5] deals with Monographella nivalis (Microdochium nivale). The assay can be described thus: Monographella nivalis (Microdochium nivale) / liquid culture (foot rot cereals). The format is cell-based. The following applies: PDB potato dextrose broth, 24° C., 4-5 days after application, read-out: control of Monographella nivalis (inhibition of growth, photometric). Here is the method:
Example B7: Monographella nivalis (Microdochium nivale)/Liquid Culture (Foot Rot Cereals) Conidia of the fungus from cryogenic storage are directly mixed into nutrient broth (PDB potato dextrose broth). After placing a (DMSO) solution of test compound into a microtiter plate (96-well format), the nutrient broth containing the fungal spores is added. The test plates are incubated at 24° C. and the inhibition of growth is determined photometrically 4-5 days after application. […] […]-190.

SMILES strings stand for the structures.

On to `COc1ccc(N(C#N)c2cc(F)cc(F)c2)nc1C(=O)NC1CCC1(C)C` (stereo not shown) [Compound P-20, 6-(N-cyano-3,5-difluoro-anilino)-N-(2,2-dimethylcyclobutyl)-3-methoxy-pyridine-2-carboxamide], for which the pest or weed control at 200 ppm in assay [1] and in assay [3] was at least 80% throughout. Moreover, the inhibition at 20 ppm in assay [2] and in assay [4] was at least 80% each time.

Regarding `COc1ccc(Nc2cc(F)nc(F)c2)nc1C(=O)NCC(C)c1ccccc1` (stereo not shown) [Compound P-32, 6-[(2,6-difluoro-4-pyridyl)amino]-3-methoxy-N-(2-phenylpropyl)pyridine-2-carboxamide], the pest or weed control at 200 ppm in assay [1] was at least 80%. Further, in assay [2], the inhibition at 20 ppm was at least 80%.

For `COc1ccc(Nc2cnsc2)nc1C(=O)NC1CCC12CCCC2` (stereo not shown) [Compound P-33, 6-(isothiazol-4-ylamino)-3-methoxy-N-spiro[3.4]octan-3-yl-pyridine-2-carboxamide], the pest or weed control at 200 ppm in assay [1] is at least 80%. The inhibition at 20 ppm in assay [2], in assay [4] and in assay [5] was at least 80% in each case.

Take `COc1ccc(Nc2cc(F)nc(F)c2)nc1C(=O)NCC#CC(C)(C)C` [Compound P-35, 6-[(2,6-difluoro-4-pyridyl)amino]-N-(4,4-dimethylpent-2-ynyl)-3-methoxy-pyridine-2-carboxamide]: the pest or weed control at 200 ppm in assay [1] was at least 80%. For the same molecule, the inhibition at 20 ppm in assay [2] was at least 80%.

As to `COc1ccc(Nc2cc(F)nc(F)c2)nc1C(=O)NCC1(C(F)(F)F)CC1` [Compound P-49, 6-[(2,6-difluoro-4-pyridyl)amino]-3-methoxy-N-[[1-(trifluoromethyl)cyclopropyl]methyl]pyridine-2-carboxamide], the pest or weed control at 200 ppm in assay [1] was at least 80%.

On to `COc1ccc(Nc2cc(F)nc(F)c2)nc1C(=O)NCC1(C)CCOC2(CCC2)C1` (stereo not shown) [Compound P-52, 6-[(2,6-difluoro-4-pyridyl)amino]-3-methoxy-N-[(8-methyl-5-oxaspiro[3.5]nonan-8-yl)methyl]pyridine-2-carboxamide], for which the pest or weed control at 200 ppm in assay [1] and in assay [3] was at least 80% each time. Moreover, in assay [4], the inhibition at 20 ppm is at least 80%.

As for `COc1ccc(Nc2cc(F)cc(F)c2)nc1C(=O)NC1CC2CCOC21` (stereo not shown) [Compound P-59, 6-(3,5-difluoroanilino)-3-methoxy-N-(2-oxabicyclo[3.2.0]heptan-7-yl)pyridine-2-carboxamide], the inhibition at 20 ppm in assay [2] and in assay [4] was at least 80% throughout. Also, in assay [3], the pest or weed control at 200 ppm was at least 80%.

For the molecule `COc1ccc(Nc2cc(F)cc(F)c2)nc1C(=O)NC(C)C1CCOCC1` (stereo not shown) [Compound P-61, 6-(3,5-difluoroanilino)-3-methoxy-N-(1-tetrahydropyran-4-ylethyl)pyridine-2-carboxamide], the pest or weed control at 200 ppm in assay [1] and in assay [3] was at least 80% each time. Besides, the inhibition at 20 ppm in assay [4] is at least 80%.

For `COc1ccc(Nc2cc(F)cc(F)c2)nc1C(=O)NCc1cnn(C)n1` [Compound P-69, 6-(3,5-difluoroanilino)-3-methoxy-N-[(2-methyltriazol-4-yl)methyl]pyridine-2-carboxamide], the pest or weed control at 200 ppm in assay [1] was at least 80%.

Regarding `COc1ccc(Nc2cc(F)cc(F)c2)nc1C(=O)NC(C)c1ncc(C)o1` (stereo not shown) [Compound P-71, 6-(3,5-difluoroanilino)-3-methoxy-N-[1-(5-methyloxazol-2-yl)ethyl]pyridine-2-carboxamide], in assay [1], the pest or weed control at 200 ppm is at least 80%. In addition, the inhibition at 20 ppm in assay [2] and in assay [4] was at least 80% throughout.

Turning to `COc1ccc(Nc2cc(F)nc(F)c2)nc1C(=O)NC1(c2ccc(F)cc2)CC1` [Compound P-89, 6-[(2,6-difluoro-4-pyridyl)amino]-N-[1-(4-fluorophenyl)cyclopropyl]-3-methoxy-pyridine-2-carboxamide], the pest or weed control at 200 ppm in assay [1] is at least 80%.

In the case of `COc1ccc(Nc2cc(F)nc(F)c2)nc1C(=O)NC1(Cc2ccc(Cl)cc2)CC1` [Compound P-90, N-[1-[(4-chlorophenyl)methyl]cyclopropyl]-6-[(2,6-difluoro-4-pyridyl)amino]-3-methoxy-pyridine-2-carboxamide], the pest or weed control at 200 ppm in assay [1] is at least 80%. Further, the inhibition at 20 ppm in assay [4] was at least 80%.

Take `COc1ccc(Nc2cncc(F)c2)nc1C(=O)NC(C)(C)C` [Compound P-103, N-tert-butyl-6-[(5-fluoro-3-pyridyl)amino]-3-methoxy-pyridine-2-carboxamide]: the pest or weed control at 200 ppm in assay [1] and in assay [3] was at least 80% in each case.

Regarding `CC(C)(C)CNC(=O)c1cccc(Nc2cc(F)cc(F)c2)n1` [Compound P-111, 6-(3,5-difluoroanilino)-N-(2,2-dimethylpropyl)pyridine-2-carboxamide], the pest or weed control at 200 ppm in assay [1] is at least 80%. The inhibition at 20 ppm in assay [2], in assay [4] and in assay [5] was at least 80% each time.

Turning to `COc1ccc(Nc2cc(F)cc(F)c2)nc1C(=O)NC1(C#N)CSC1` [Compound P-121, N-(3-cyanothietan-3-yl)-6-(3,5-difluoroanilino)-3-methoxy-pyridine-2-carboxamide], the inhibition at 20 ppm in assay [2], in assay [4] and in assay [5] was at least 80% throughout. Besides, the pest or weed control at 200 ppm in assay [3] is at least 80%.

On to `COc1ccc(Nc2cc(F)nc(F)c2)nc1C(=O)NC1(C)CCOC1` (stereo not shown) [Compound P-124, 6-[(2,6-difluoro-4-pyridyl)amino]-3-methoxy-N-(3-methyltetrahydrofuran-3-yl)pyridine-2-carboxamide], for which the pest or weed control at 200 ppm in assay [3] was at least 80%.

For the molecule `COc1ccc(Nc2cc(F)nc(F)c2)nc1C(=O)NC1(C#N)CCC1` [Compound P-126, N-(1-cyanocyclobutyl)-6-[(2,6-difluoro-4-pyridyl)amino]-3-methoxy-pyridine-2-carboxamide], in assay [1], the pest or weed control at 200 ppm is at least 80%.

On to `COc1ccc(Nc2cc(F)cc(F)c2)nc1C(=O)NC1(C)COC1` [Compound P-128, 6-(3,5-difluoroanilino)-3-methoxy-N-(3-methyloxetan-3-yl)pyridine-2-carboxamide], for which the pest or weed control at 200 ppm in assay [1] and in assay [3] was at least 80% throughout. The inhibition at 20 ppm in assay [2] and in assay [4] was at least 80% throughout.

As for `COc1ccc(Nc2cc(F)cc(F)c2)nc1C(=O)NC1(C#N)CCC1` [Compound P-129, N-(1-cyanocyclobutyl)-6-(3,5-difluoroanilino)-3-methoxy-pyridine-2-carboxamide], the pest or weed control at 200 ppm in assay [1] was at least 80%. The inhibition at 20 ppm in assay [2] and in assay [4] was at least 80% each time.

For the molecule `COc1ccc(Nc2ccc(Cl)c(F)c2)nc1C(=O)NCC(C)(C)C` [Compound P-144, 6-(4-chloro-3-fluoro-anilino)-N-(2,2-dimethylpropyl)-3-methoxy-pyridine-2-carboxamide], the pest or weed control at 200 ppm in assay [1] is at least 80%. The inhibition at 20 ppm in assay [2], in assay [4] and in assay [5] was at least 80% each time.

Turning to `COc1ccc(Nc2ccc3c(c2)OCO3)nc1C(=O)NC(C)(C)C` [Compound P-159, 6-(1,3-benzodioxo1-5-ylamino)-N-tert-butyl-3-methoxy-pyridine-2-carboxamide], the pest or weed control at 200 ppm in assay [1] is at least 80%.

As to `COc1ccc(Nc2ccc(C#N)c(F)c2)nc1C(=O)NC(C)(C)C` [Compound P-164, N-tert-butyl-6-(4-cyano-3-fluoro-anilino)-3-methoxy-pyridine-2-carboxamide], the pest or weed control at 200 ppm in assay [1] and in assay [3] was at least 80% in each case.

As to `COc1ccc(Nc2cncnc2)nc1C(=O)NC(C)(C)C` [Compound P-166, N-tert-butyl-3-methoxy-6-(pyrimidin-5-ylamino)pyridine-2-carboxamide], in assay [3], the pest or weed control at 200 ppm was at least 80%.

On to `COc1ccc(N(C(C)=O)c2cc(F)nc(F)c2)nc1C(=O)NC1CCC1(C)C` (stereo not shown) [Compound P-192, 6-[acetyl-(2,6-difluoro-4-pyridyl)amino]-N-(2,2-dimethylcyclobutyl)-3-methoxy-pyridine-2-carboxamide], for which the pest or weed control at 200 ppm in assay [1] and in assay [3] was at least 80% in each case.

(Values after patent US12458021B2, “Microbiocidal derivatives” (SYNGENTA CROP PROTECTION AG, priority 2019, dated 2025).)
